The values that follow come from US20190008864A1, “PHARMACEUTICAL COMPOSITION CONTAINING GPR119 LIGAND AS EFFECTIVE INGREDIENT FOR PREVENTING OR TREATING NON-ALCOHOLIC STEATOHEPATITIS” (PHARMEDIX.CO., LTD., priority 2014, published 2019).

The subject of this assay is fatty liver model induced by a high-fat diet. Description: Fatty liver model induced by high-fat diet. The assay is classed as in vivo, C57BL/6J mice. From the text:
In the present invention, a high fat diet (HFD: 60% fat calories, Research diets, D12492, US) was used as an obesity induction diet.
Six-week-old male C57BL/6J mice (Central Lab. Animal Inc., Seoul, Korea) were acclimated to an experimental environment for one week while being fed solid food, and then randomly divided into a control group and an experimental group for a high-fat diet using a randomized block design. The animal groups were fed for 12 weeks, and thus, fatty liver animal models were established. Fatty liver development was determined according to blood biochemical and histochemical analysis methods. The mice were orally fed with the high-fat diet only for six weeks, and in combination with a GPR119 ligand (10 mg/kg) suspended in 40% PEG400 once a day for five days every week. Choline-deficient, amino acid-fixed high-fat diet steatohepatitis models were prepared by feeding six-week-old male C57BL/6J mice (Central Lab. Animal Inc., Seoul) with a diet containing 60 kcal fat and 0.1% methionine for four weeks. After terminating the experiment, experimental animals fasted for 12 hours or more. Subsequently, blood, liver, and adipose tissues in intestines (epididymal fat, kidney-surrounding fat) were collected from the animals that had been anesthetized with diethyl ether and then washed with a 0.1 M phosphate buffered saline (pH 7.4), followed by being weighed. Blood collected from abdominal aortas was centrifuged at 3000 rpm for 20 minutes using SST tubes to separate serum.
A total cholesterol concentration and a total glucose concentration in serum from each of the aforementioned experimental animals raised for 12 weeks were measured as follows. Each of the total cholesterol concentration and the total glucose concentration in serum was measured twice by means of a commercial measurement kit (Bio Clinical Systems). The amount of alanine aminotransferase (ALT) in blood used as a liver function index was measured by means of a commercial analysis kit (Bio Clinical Systems, Korea).
The collected liver tissues were fixed with a 10% neutral formalin solution and then subjected to a common fixation procedure and dehydration process, followed by embedding the same in paraffin. The embedded tissues were sectioned to a thickness of 4 μm and stained with H&E. The stained tissues were observed by means of an optical microscope.
A predetermined amount of each of the liver tissues was homogenized in liquid nitrogen and a cell lysis buffer in a mortar, and then a lysed tissue solution was transferred to a new tube, followed by vortexing. […] A middle layer of the centrifuged solution was collected and then subjected to protein quantification by the Bradford assay. […] Expression changes of FAS and SREBP-1c proteins were measured by western blotting. […]

As to `CCc1cnc(N2CCC(c3nc(COc4ccc(-n5cnnn5)cc4)cs3)CC2)nc1` [MBX2982, 4-((4-(1H-tetrazol-1-yl)phenoxy)methyl)-2-(1-(5-ethylpyrimidin-2-yl)piperidin-4-yl)thiazole], the fatty liver development result (animal models fed with a high-fat diet) was “completely inhibited”. The “fat weight in the tissue” value (high-fat diet mice, 10 mg/kg oral) is listed as “significantly decreased”. Besides, the “mRNA level of GPR119 in liver” value (mice administered ligand, compared to a control group) is reported as “seven-fold increased”.
